These are literature values, as cited in US20070135435A1, “Certain chemical entities, compositions, and methods” (priority 2005, published 2007).

Molecules are shown by their SMILES.

The GI50 is the concentration giving 50% growth inhibition.

For this series, the system named is A549 cells.

Take `COc1cccc2c1C(=O)c1c(O)c3c(c(O)c1C2=O)C[C@@](O)(C(=O)CO)C[C@@H]3O[C@H]1C[C@H](N)[C@H](O)[C@H](C)O1` [doxorubicin]: the GI50 is 63 nM. Turning to `O=c1[nH]cc(F)c(=O)[nH]1` [5-fluorouracil], the 50% growth inhibitory concentration (GI50) is 1000 nM. With `CC(=O)O[C@H]1C(=O)[C@@]2(C)[C@H]([C@H](OC(=O)c3ccccc3)[C@]3(O)C[C@H](OC(=O)[C@H](O)[C@@H](NC(=O)c4ccccc4)c4ccccc4)C(C)=C1C3(C)C)[C@]1(OC(C)=O)CO[C@@H]1C[C@@H]2O` [paclitaxel], the 50% growth inhibitory concentration (GI50) is 4 nM. As to `NC(=O)NO` [hydroxyurea], the concentration for 50% growth inhibition (GI50) was 500000 nM.
